Source: ChEMBL document CHEMBL1128246, “Synthesis and structure-activity relationships of oxamic acid and acetic acid derivatives related to L-thyronine” (J Med Chem, 1995)

What was measured:
[1] = molecular target: T1, Thyroid hormone receptor beta (Rattus norvegicus, UniProt P18113); assay: Ability to inhibit the bound [125I]L-T3 rat liver Nuclear L-triiodothyronine receptor is determined in vitro.
T1 sequence (P18113 whole entry): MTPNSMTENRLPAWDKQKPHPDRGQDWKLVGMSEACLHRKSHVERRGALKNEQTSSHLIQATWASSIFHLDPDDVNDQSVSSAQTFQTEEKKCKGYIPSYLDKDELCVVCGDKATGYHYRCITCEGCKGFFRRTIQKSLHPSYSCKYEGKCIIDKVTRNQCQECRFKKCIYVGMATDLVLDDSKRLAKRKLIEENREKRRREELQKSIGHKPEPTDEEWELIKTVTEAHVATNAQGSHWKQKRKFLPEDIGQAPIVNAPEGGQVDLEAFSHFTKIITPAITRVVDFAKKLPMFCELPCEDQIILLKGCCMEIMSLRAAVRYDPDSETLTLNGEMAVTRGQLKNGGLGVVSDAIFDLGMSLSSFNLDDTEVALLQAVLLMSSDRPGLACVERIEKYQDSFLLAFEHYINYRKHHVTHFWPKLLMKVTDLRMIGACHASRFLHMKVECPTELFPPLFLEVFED

Rattus norvegicus [2] = assay: Dose which was not showing any cardiac effect in normal cholesterol rats upon peroral administration; type: functional
Rattus norvegicus [3] = assay: Effective dose was determined in hypercholesterolemic rats for lowering total serum cholesterol compared to control upon peroral administration; type: functional; conditions: po
Rattus norvegicus [4] = assay: Minimum effective dose was determined in hypercholesterolemic rats for lowering total cholesterol level compared to control upon peroral administration; type: functional; conditions: po, read-out: MED
Rattus norvegicus [5] = assay: Percent change in serum LDL level was determined in hypercholesterolemic rats at 25 ug/Kg upon peroral administration; type: functional
Rattus norvegicus [6] = assay: Percent change in serum HDL level was determined in hypercholesterolemic rats at 25 ug/Kg upon peroral administration; type: functional
Rattus norvegicus [7] = assay: Percent change in serum HDL level was determined in hypercholesterolemic rats at 10 ug/Kg upon peroral administration; type: functional
Rattus norvegicus [8] = assay: Percent change in serum LDL level was determined in hypercholesterolemic rats at 10 ug/Kg upon peroral administration; type: functional
Rattus norvegicus [9] = assay: Percent change in serum LDL level was determined in hypercholesterolemic rats at 100 ug/Kg upon peroral administration; type: functional
Rattus norvegicus [10] = assay: Percent change in serum HDL level was determined in hypercholesterolemic rats at 100 ug/Kg upon peroral administration; type: functional

`CC(C)c1cc(Oc2c(I)cc(NCC(=O)O)cc2I)ccc1O` was tested, and the IC50 [1] was 0.31 nM.
For `CC(C)c1cc(Oc2c(Cl)cc(NC(Cc3ccccc3)C(=O)O)cc2Cl)ccc1O` (stereo unspecified), the IC50 [1] was 58 nM.
`Cc1cc(NC(C)C(=O)O)cc(C)c1Oc1ccc(O)c(C(C)C)c1` (stereo unspecified) gave an IC50 [1] of 550 nM.
`CC(C)c1cc(Oc2c(Br)cc(SCC(=O)O)cc2Br)ccc1O` showed an IC50 [1] of 1.5 nM.
For `CC(C)c1cc(Oc2c(Cl)cc(NCC(=O)O)cc2Cl)ccc1O`, the IC50 [1] was 1.1 nM.
In the case of `CCOC(=O)C(=O)Nc1cc(C)c(Oc2ccc(OC)c(C(O)c3ccc(F)cc3)c2)c(C)c1` (stereo unspecified), the IC50 [1] is reported as 34 nM.
`Cc1cc(CCC(=O)O)cc(C)c1Oc1ccc(O)c(C(C)C)c1` was tested, and the IC50 [1] was > 5000 nM.
`CC(C)c1cc(Oc2c(Br)cc(CCC(=O)O)cc2Br)ccc1O` showed an IC50 [1] of 0.11 nM.
`Cc1cc(SCC(=O)O)cc(C)c1Oc1ccc(O)c(C(C)C)c1` was tested, and the IC50 [1] was 3.5 nM.
Work on `CC(C)c1cc(Oc2c(Cl)cc(NC(=O)C(=O)O)cc2Cl)ccc1O` yielded a Dose (Rattus norvegicus [2]) of 10 mg/kg, an ED50 (Rattus norvegicus [3]) of 0.05 mg/kg and a minimal effective dose (Rattus norvegicus [4]) of 0.0125 mg/kg.
`CC(Nc1cc(Cl)c(Oc2ccc(O)c(C(C)C)c2)c(Cl)c1)C(=O)O` (stereo unspecified) was tested, and the IC50 [1] was 48 nM.
`CC(C)c1cc(Oc2c(Br)cc(OCC(=O)O)cc2Br)ccc1O` gave an IC50 [1] of 0.1 nM.
For `Cc1cc(NC(Cc2ccccc2)C(=O)O)cc(C)c1Oc1ccc(O)c(C(C)C)c1` (stereo unspecified), the IC50 [1] was 400 nM.
`Cc1cc(NCC(=O)O)cc(C)c1Oc1ccc(O)c(C(C)C)c1` showed an IC50 [1] of 12 nM.
`Cc1cc(NC(=O)C(=O)O)cc(C)c1Oc1ccc(O)c(C(C)C)c1` was tested, and the Dose (Rattus norvegicus [2]) was 10 mg/kg, the ED50 (Rattus norvegicus [3]) was 0.02 mg/kg and the minimal effective dose (Rattus norvegicus [4]) was 0.01 mg/kg. The Change (Rattus norvegicus [5]) was -67% and the Change (Rattus norvegicus [6]) was -5%.
For `CCOC(=O)C(=O)Nc1cc(C)c(Oc2ccc(O)c(C(O)c3ccc(F)cc3)c2)c(C)c1` (stereo in doubt; 23a) [AXITIROME], the Dose (Rattus norvegicus [2]) was >25 mg/kg, the Change (Rattus norvegicus [7]) was 0% and the ED50 (Rattus norvegicus [3]) was 0.005 mg/kg. The minimal effective dose (Rattus norvegicus [4]) was < 0.001 mg/kg and the Change (Rattus norvegicus [8]) was -73%.
For `N[C@@H](Cc1cc(I)c(Oc2ccc(O)c(I)c2)c(I)c1)C(=O)O` [LIOTHYRONINE], the Change (Rattus norvegicus [9]) was -65%, the Dose (Rattus norvegicus [2]) was <0.025 mg/kg and the ED50 (Rattus norvegicus [3]) was 0.1 mg/kg. For the same molecule, the minimal effective dose (Rattus norvegicus [4]) was 0.025 mg/kg and the Change (Rattus norvegicus [10]) was -8%.
